Data reported in ChEMBL document CHEMBL3751663, “Design and Synthesis of a Focused Library of Diamino Triazines as Potential Mycobacterium tuberculosis DHFR Inhibitors” (ACS Med Chem Lett, 2015).
≈ marks a conversion by molar mass, not a printed value.

Assays:
A549 = test: Cytotoxicity against human A549 cells; assay type: cell-based
HepG2 = test: Cytotoxicity against human HepG2 cells by SRB assay; assay type: cell-based
Escherichia coli = test: Antimicrobial activity against Escherichia coli; assay type: functional
[1] = tested on: Mycobacterium tuberculosis; test: microbe, parasite or virus in culture; conditions: H37Rv, 48 h
Description: Antimycobacterium activity against Mycobacterium tuberculosis H37Rv after 48 hrs by Resazurin microtiter assay

Staphylococcus aureus = test: Antimicrobial activity against Staphylococcus aureus; assay type: functional
[2] = tested on: Mycobacterium tuberculosis; test: Antimycobacterium activity against Mycobacterium tuberculosis H37Ra at dormant stage at 10 ug/ml; assay type: functional
Dihydrofolate reductase [3] = target: T1, Dihydrofolate reductase (Mycobacterium tuberculosis, UniProt P9WNX1); test: Inhibition of recombinant Mycobacterium tuberculosis DHFR using 45 uM DHF as substrate by spectrophotometry
T1 sequence (P9WNX1 whole entry): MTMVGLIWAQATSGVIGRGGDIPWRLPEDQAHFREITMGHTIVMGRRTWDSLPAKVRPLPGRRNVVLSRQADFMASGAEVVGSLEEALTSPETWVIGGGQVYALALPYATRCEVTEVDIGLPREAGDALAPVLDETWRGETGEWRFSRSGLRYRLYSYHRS

Dihydrofolate reductase [4] = target: T2, Dihydrofolate reductase (Homo sapiens, UniProt P00374); test: Inhibition of human DHFR using 45 uM DHF as substrate by spectrophotometry
T2 sequence (P00374 whole entry): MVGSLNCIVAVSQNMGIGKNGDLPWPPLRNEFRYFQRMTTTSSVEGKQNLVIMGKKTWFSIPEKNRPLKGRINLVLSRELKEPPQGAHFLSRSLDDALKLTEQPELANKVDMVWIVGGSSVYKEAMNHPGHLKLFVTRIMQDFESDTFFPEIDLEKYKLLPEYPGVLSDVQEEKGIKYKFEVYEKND

SMILES | Activity (A549) | Activity (HepG2) | MIC (Escherichia coli) [µM] | MIC [1] [µM] | MIC (Staphylococcus aureus) [µM] | inhibition at 10 µg/mL [2] [%] | IC50 (Dihydrofolate reductase [3]) [µM] | IC50 (Dihydrofolate reductase [4]) [µM]
Cc1ccc(Oc2ccc(-c3nc(N)nc(N)n3)cc2)cc1 | Non-toxic | Non-toxic | 426 (≈ 125 µg/mL) | > 418 | 426 (≈ 125 µg/mL) | – | – | –
Nc1nc(N)nc(-c2ccc(Oc3ccc(Br)cc3)cc2)n1 | Non-toxic | Non-toxic | 349 (≈ 125 µg/mL) | 3.56 (≈ 1.28 µg/mL) | 349 (≈ 125 µg/mL) | 83 | – | –
Cc1cc(Oc2ccc(-c3nc(N)nc(N)n3)cc2)cc(C)c1Cl | Non-toxic | Non-toxic | 366 (≈ 125 µg/mL) | > 369 | 366 (≈ 125 µg/mL) | 14.5 | – | –
Cc1cccc(C)c1Oc1ccc(-c2nc(N)nc(N)n2)cc1 | Non-toxic | Non-toxic | 407 (≈ 125 µg/mL) | 20.3 (≈ 6.25 µg/mL) | 407 (≈ 125 µg/mL) | 96.9 | – | –
Nc1nc(N)nc(-c2ccc(Oc3ccc(F)cc3)cc2)n1 | Non-toxic | Non-toxic | 420 (≈ 125 µg/mL) | > 420 | 420 (≈ 125 µg/mL) | 4.98 | – | –
Nc1nc(N)nc(-c2ccc(Oc3ccccc3Cl)cc2)n1 | Non-toxic | Non-toxic | 398 (≈ 125 µg/mL) | 20.7 (≈ 6.5 µg/mL) | 398 (≈ 125 µg/mL) | 27.6 | – | –
NNC(=O)c1ccncc1 [ISONIAZID] | – | – | – | 0.73 (≈ 0.1 µg/mL) | – | – | – | –
Nc1nc(N)nc(-c2ccc(Oc3ccc(Cl)cc3)cc2)n1 | Non-toxic | Non-toxic | 398 (≈ 125 µg/mL) | > 398 | 398 (≈ 125 µg/mL) | 81.1 | – | –
CC(C)(C)c1ccc(Oc2ccc(-c3nc(N)nc(N)n3)cc2)cc1 | Non-toxic | Non-toxic | 373 (≈ 125 µg/mL) | > 380 | 373 (≈ 125 µg/mL) | 42.2 | – | –
Cc1cc(Oc2ccc(-c3nc(N)nc(N)n3)cc2)ccc1Cl | Non-toxic | Non-toxic | 381 (≈ 125 µg/mL) | > 381 | 381 (≈ 125 µg/mL) | 7.27 | – | –
Cc1cccc(Oc2ccc(-c3nc(N)nc(N)n3)cc2)c1 | Non-toxic | Non-toxic | 426 (≈ 125 µg/mL) | > 447 | 426 (≈ 125 µg/mL) | 15 | – | –
CN(Cc1cnc2nc(N)nc(N)c2n1)c1ccc(C(=O)N[C@@H](CCC(=O)O)C(=O)O)cc1 [METHOTREXATE] | – | – | – | 0.968 (≈ 0.44 µg/mL) | – | – | – | –
Nc1nc(N)nc(-c2ccc(Sc3ccccc3)cc2)n1 | Non-toxic | Non-toxic | 423 (≈ 125 µg/mL) | 212 (≈ 62.5 µg/mL) | 423 (≈ 125 µg/mL) | 11.7 | – | –
Nc1nc(N)nc(-c2ccc(Oc3ccc(Cl)cc3Cl)cc2)n1 | Non-toxic | Non-toxic | 359 (≈ 125 µg/mL) | 3.59 (≈ 1.25 µg/mL) | 359 (≈ 125 µg/mL) | 93.6 | – | –
Cc1cc(Cl)ccc1Oc1ccc(-c2nc(N)nc(N)n2)cc1 | Non-toxic | Non-toxic | 381 (≈ 125 µg/mL) | 1.96 (≈ 0.642 µg/mL) | 381 (≈ 125 µg/mL) | 87.2 | – | –
COc1ccc(Oc2ccc(-c3nc(N)nc(N)n3)cc2)cc1 | Non-toxic | Non-toxic | 404 (≈ 125 µg/mL) | > 396 | 404 (≈ 125 µg/mL) | 37.5 | – | –
Cc1cccc(Oc2ccc(-c3nc(N)nc(N)n3)cc2)c1C | Non-toxic | Non-toxic | 407 (≈ 125 µg/mL) | 0.325 (≈ 0.0999 µg/mL) | 407 (≈ 125 µg/mL) | 16.1 | 25.9 | 42
Nc1nc(N)nc(-c2ccc(Oc3ccccc3)cc2)n1 | Non-toxic | Non-toxic | 448 (≈ 125 µg/mL) | 110 (≈ 30.6 µg/mL) | 448 (≈ 125 µg/mL) | 19.4 | – | –
COc1cc(Cc2cnc(N)nc2N)cc(OC)c1OC [TRIMETHOPRIM] | – | – | – | 28.9 (≈ 8.4 µg/mL) | – | – | – | –
